Read-outs that look alike come from different tables or passages of the source.
Columns and labels:
[1] = test system: TNF-α release from human peripheral blood mononuclear cells (PBMC); assay: TNF-α Release in LPS stimulated PBMC; format: cell-based; details: 30 minutes pre-incubation, stimulated 18 hours with lipopolysaccharide, TNF-α in supernatant by enzyme immunoassay
Description: Human peripheral blood mononuclear cells (PBMC) were isolated from buffy coats. The blood is mixed with saline at a ratio of 1:1, and the PBMC were isolated using Lymphoprep Tubes™ (Nycomed, Norway). The PBMC were suspended in RPMI1640 with 2% foetal calf serum (FCS), pen/strep and 2 mM L-glutamine at a concentration of […]. The cells were pre-incubated for 30 minutes with the test compounds in 96 well tissue culture plates and stimulated for 18 hours with lipopolysaccharide […] (Sigma). The level of TNF-α was measured in the culture supernatant by enzyme immunoassays using primary and secondary biotinylated antibodies from R&D systems. Results are expressed as IC50 values calculated from inhibition curves using as positive controls the secretion in LPS stimulated wells and as negative controls the secretion in unstimulated cells.

[2] = target: Human recombinant PDE4 (Genbank accession no NM—006203) (Homo sapiens, UniProt Q08499); assay: PDE4 Assay (SPA, cleavage of cAMP); format: biochemical
Human recombinant PDE4 (Genbank accession no NM—006203), sequence (Q08499 1-673 isoform Q08499-2): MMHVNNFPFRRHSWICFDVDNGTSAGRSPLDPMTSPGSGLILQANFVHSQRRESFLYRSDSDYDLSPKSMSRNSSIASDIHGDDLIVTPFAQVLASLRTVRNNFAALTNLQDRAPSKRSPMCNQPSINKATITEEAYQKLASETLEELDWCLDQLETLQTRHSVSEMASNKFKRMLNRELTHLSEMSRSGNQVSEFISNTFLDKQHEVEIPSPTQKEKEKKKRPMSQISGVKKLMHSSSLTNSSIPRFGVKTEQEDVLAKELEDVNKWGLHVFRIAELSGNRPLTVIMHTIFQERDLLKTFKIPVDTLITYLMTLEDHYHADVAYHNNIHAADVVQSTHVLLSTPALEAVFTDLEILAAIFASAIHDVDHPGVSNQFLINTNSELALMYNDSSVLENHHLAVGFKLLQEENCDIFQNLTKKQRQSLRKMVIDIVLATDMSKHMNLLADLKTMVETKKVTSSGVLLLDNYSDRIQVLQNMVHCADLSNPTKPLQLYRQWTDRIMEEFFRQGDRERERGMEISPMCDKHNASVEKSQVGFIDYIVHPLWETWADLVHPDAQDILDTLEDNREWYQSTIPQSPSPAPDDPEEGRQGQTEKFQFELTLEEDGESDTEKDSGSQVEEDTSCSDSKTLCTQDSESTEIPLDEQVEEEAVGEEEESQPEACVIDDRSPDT
Description: Human recombinant PDE4 (Genbank accession no NM_006203) was incubated for 1 hour, with the test compound at concentrations up to 10 μM, with cAMP (1×10^-5M), and with a low amount (0.021 MBq) of radioactively labelled cAMP. At the end of the incubation, the cleavage of the substrate was evaluated by the binding of the AMP product to SPA beads, which generate […] when bound to the radioactive tracer. The AMP product inhibited the binding of the radioactive tracer to the beads, and the luminescent signal was competed. The results were calculated as the molar concentrations resulting in 50% inhibition of the substrate cleavage compared to controls samples, and are expressed as IC50 (M).

[3] = human recombinant PDE4, 1 hour incubation, cAMP 1×10^-5M, test compound up to 10 μM, read-out: IC50 (PDE4)

Compound	IC50 [1] [nM]	IC50 [2, 3] [nM]	IC50 [2] [nM]
COc1ccc(C(=O)Cc2c(Cl)cncc2Cl)c2c1OC1(CCOCC1)O2 [Compound 101, 2-(3,5-Dichloropyridine-4-yl)-1-(7-methoxy-2′,3′,5′,6′-tetrahydro-spiro[1,3-benzodioxole-2,4′-(4H)-pyran]-4-yl)ethanone]	28	26	
COc1ccc(C(=O)Nc2c(Cl)cncc2Cl)c2c1OC1(CCOCC1)O2 [Compound 102, N-(3,5-Dichloropyridine-4-yl)-7-methoxy-2′,3′,5′,6′-tetrahydro-spiro[1,3-benzodioxole-2,4′-(4H)-pyran]-4-carboxamide]	88	41	
COc1ccc(C(=O)Cc2c(Cl)c[n+]([O-])cc2Cl)c2c1OC1(CCOCC1)O2 [Compound 103, 2-(3,5-Dichloro-1-oxido-pyridine-4-yl)-1-(7-methoxy-2′,5′,6′-tetrahydro-spiro[1,3-benzodioxole-2,4′-(4H)-pyran]-4-yl)ethanone]	23	26	
COc1ccc(C(=O)Cc2c(Cl)cncc2Cl)c2c1OC1(CCSC1)O2 (stereo not drawn) [Compound 104, 2-(3,5-Dichloropyridine-4-yl)-1-(7-methoxy-4′,5′-dihydro-spiro[1,3-benzo-dioxole-2,3′-(2H)-thiophen]-4-yl)ethanone]	44	10	
COc1ccc(C(=O)Cc2c(Cl)cncc2Cl)c2c1OC1(CCNCC1)O2 [Compound 105, 2-(3,5-Dichloropyridine-4-yl)-1-(7-methoxy-spiro[1,3-benzodioxole-2,4′-piperidine]-4-yl)ethanone]	800		310
COC(=O)N1CCC2(CC1)Oc1c(OC)ccc(C(=O)Cc3c(Cl)cncc3Cl)c1O2 [Compound 106, 2-(3,5-Dichloropyridine-4-yl)-1-(7-methoxy-1′-[methoxycarbonyl]-spiro[1,3-benzodioxole-2,4′-piperidine]-4-yl)ethanone]	158		127
COc1ccc(C(=O)Cc2c(Cl)cncc2Cl)c2c1OC1(CCN(S(C)(=O)=O)CC1)O2 [Compound 107, 2-(3,5-Dichloropyridine-4-yl)-1-(7-methoxy-1′-[methylsulfonyl]-spiro[1,3-benzodioxole-2,4′-piperidine]-4-yl)ethanone]	910	590	
COc1ccc(C(=O)Cc2c(Cl)cncc2Cl)c2c1OC1(CCN(C(C)=O)CC1)O2 [Compound 108, 2-(3,5-Dichloropyridine-4-yl)-1-(7-methoxy-1′-acetyl-spiro[1,3-benzodioxole-2,4′-piperidine]-4-yl)ethanone]	167		220
COc1ccc(C(=O)Cc2c(Cl)cncc2Cl)c2c1OC1(CCSCC1)O2 [Compound 110, 2-(3,5-Dichloropyridine-4-yl)-1-(7-methoxy-2′,3′,5′,6′-tetrahydro-spiro[1,3-benzodioxole-2,4′-(4H)-thiopyran]-4-yl)ethanone]	17	11	
COc1ccc(C(=O)Cc2c(Cl)cncc2Cl)c2c1OC1(CC[S+]([O-])CC1)O2 (stereo not drawn) [Compound 111, 2-(3,5-Dichloropyridine-4-yl)-1-(7-methoxy-2′,3′,5′,6′-tetrahydro-spiro[1,3-benzodioxole-2,4′-(4H)-thiopyran 1′-oxide]-4-yl)ethanone]	19	18	
COc1ccc(C(=O)Cc2c(Cl)cncc2Cl)c2c1OC1(CCS(=O)(=O)CC1)O2 [Compound 112, 2-(3,5-Dichloropyridine-4-yl)-1-(7-methoxy-2′,3′,5′,6′-tetrahydro-spiro[1,3-benzodioxole-2,4′-(4H)-thiopyran-1,1′-dioxide]-4-yl)ethanone]	34	29	
COc1ccc(C(=O)Cc2c(Cl)c[n+]([O-])cc2Cl)c2c1OC1(CCS(=O)(=O)CC1)O2 [Compound 113, 2-(3,5-Dichloro-1-oxido-pyridine-4-yl)-1-(7-methoxy-2′,3′,5′,6′-tetrahydro-spiro[1,3-benzodioxole-2,4′-(4H)-thiopyran-1′,1′-dioxide]-4-yl)ethanone]	82	53	

— patent US8338431B2, “Phosphodiesterase inhibitors” (Leo Pharma A/S, priority 2007, dated 2012)
